pIC50: −log10 of the molar value. Like-named read-outs stand apart in the source and are kept apart here.
Experiments:
Aβ42 [1] = test: γ-secretase-modulating activity, Method 2: Aβ42 Alphalisa in supernatant of SKNBE2 cells carrying APP 695-wild type (Table 3b); assay type: cell-based; conditions: overnight
Procedure, shortened: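 Aβ42 in the supernatant was quantified by AlphaLISA sandwich (JRF/cAβ42/26 with JRF/AβN/25). Cells were wild-type APP695 SKNBE2, exposed to compound overnight at 37° C., 5% CO2. Data were normalised to untreated maximum and fitted with a four-parameter curve to give IC50.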

Aβtotal [2] = test: In vivo efficacy, Method 2: brain soluble Aβtotal lowering 4 h after a single oral dose, ELISA (Table 4b); design: species or system mouse; conditions: dose 30 mg/kg oral dosing
Source text: (§1) To determine whether acute administration of an Aβ42 lowering agent would reduce Aβ42 levels in vivo, non-transgenic rodents, e.g. mice or rats were used. Animals treated with the Aβ42 lowering agent were examined and compared to those untreated or treated with vehicle and brain levels of soluble Aβ42 and total Aβ were quantitated by standard techniques, for example, using ELISA. Treatment periods varied from hours (h) to days and were adjusted based on the results of the Aβ42 lowering once a time course of onset of effect could be established.
(§2) A typical protocol for measuring Aβ42 lowering in vivo is shown but it is only one of many variations that could be used to optimize the levels of detectable Aβ. For example, Aβ42 lowering compounds were formulated in 20% of Captisol® (a sulfobutyl ether of β-cyclodextrin) in water or 20% hydroxypropyl β cyclodextrin. The Aβ42 lowering agents were administered as a single oral dose or by any acceptable route of administration to overnight fasted animals. After 4 h, the animals were sacrificed and Aβ42 levels were analysed.
(§3) Blood was collected by decapitation and exsanguinations in EDTA-treated collection tubes. Blood was centrifuged at 1900 g for 10 minutes (min) at 4° C. and the plasma recovered and flash frozen for later analysis. The brain was removed from the cranium and hindbrain. The cerebellum was removed and the left and right hemisphere were separated. The left hemisphere was stored at −18° C. for quantitative analysis of test compound levels. The right hemisphere was rinsed with phosphate-buffered saline (PBS) buffer and immediately frozen on dry ice and stored at −80° C. until homogenization for biochemical assays.
(§4) Mouse brains from non-transgenic animals were resuspended in 8 volumes of 0.4% DEA (diethylamine)/50 mM NaCl containing protease inhibitors (Roche-11873580001 or 04693159001) per gram of tissue, e.g. for 0.158 g brain, add 1.264 ml of 0.4% DEA. All samples were homogenized in the FastPrep-24 system (MP Biomedicals) using lysing matrix D (MPBio #6913-100) at 6 m/s for 20 seconds. Homogenates were centrifuged at 221.300×g for 50 min. The resulting high speed supernatants were then transferred to fresh eppendorf tubes. Nine parts of supernatant were neutralized with 1 part 0.5 M Tris-HCl pH 6.8 and used to quantify Aβtotal and Aβ42.
(§5) To quantify the amount of Aβtotal and Aβ42 in the soluble fraction of the brain homogenates, Enzyme-Linked-Immunosorbent-Assays were used. Briefly, the standards (a dilution of synthetic Aβ1-40 and Aβ1-42, Bachem) were prepared in 1.5 ml Eppendorf tube in Ultraculture, with final concentrations ranging from 10000 to 0.3 pg/ml. The samples and standards were co-incubated with HRPO-labelled N-terminal antibody for Aβ42 detection and with the biotinylated mid-domain antibody 4G8 for Aβtotal detection. 50 μl of conjugate/sample or conjugate/standards mixtures were then added to the antibody-coated plate (the capture antibodies selectively recognize the C-terminal end of Aβ42, antibody JRF/cAβ42/26, for Aβ42 detection and the N-terminus of Aβ, antibody JRF/rAβ/2, for Aβtotal detection). The plate was allowed to incubate overnight at 4° C. in order to allow formation of the antibody-amyloid complex. Following this incubation and subsequent wash steps the ELISA for Aβ42 quantification was finished by addition of Quanta Blu fluorogenic peroxidase substrate according to the manufacturer's instructions (Pierce Corp., Rockford, Ill.). A reading was performed after 10 to 15 min (excitation 320/emission 420).
For Aβtotal detection, a Streptavidine-Peroxidase-Conjugate was added, followed 60 min later by an additional wash step and addition of Quanta Blu fluorogenic peroxidase substrate according to the manufacturer's instructions (Pierce Corp., Rockford, Ill.). A reading was performed after 10 to 15 min (excitation 320 nm/emission 420 nm).
(§6) The results are shown in Table 4b (dose 30 mg/kg oral dosing): […]

Aβ42 [3] = test: In vivo efficacy, Method 2: brain soluble Aβ42 lowering 4 h after a single oral dose, ELISA (Table 4b); design: species or system mouse; conditions: dose 30 mg/kg oral dosing
Source text: as §1, §2, §3, §4, §5
In this model at least 20% Aβ42 lowering compared to untreated animals would be advantageous.
as §6

Aβtotal [4] = test: γ-secretase-modulating activity, Method 2: Aβtotal Alphalisa in supernatant of SKNBE2 cells carrying APP 695-wild type (Table 3b); assay type: cell-based; conditions: overnight, read-out: IC50 Aβtot
Procedure, shortened: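 Secreted Aβtotal was quantified by AlphaLISA pairing an N-terminal antibody (JRF/AβN/25) with biotinylated mid-region 4G8. Wild-type APP 695 SKNBE2 cells received serially varied compound overnight at 37 °C; IC50 came from a 4-parameter nonlinear regression of percent of control against log dose.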

| Structure (SMILES) | pIC50 (Aβ42 [1]) | pIC50 (Aβtotal [4]) | also measured |
| --- | --- | --- | --- |
| COc1nc(-c2nc3n(n2)CCC[C@H]3c2ccc(F)cc2C)ccc1-n1cnc(C)c1 [Compound 361] | 7.38 |  | Aβtotal (% Ctrl) _Mean (Aβtotal [2]): −8 % Ctrl; Aβ42 (% Ctrl) _Mean (Aβ42 [3]): 32 % Ctrl |
| COc1cc(-c2nc(-c3ccc(-n4cnc(C)c4)c(OC)c3)n(C)n2)ccc1Cl [Compound 58] | < 5.00 | < 5.00 |  |
| COc1cc(Nc2nc(-c3ccc(-n4cnc(C)c4)c(OC)c3)nn2C)c(F)c(C(F)(F)F)c1 [Compound 202] | 7.60 | < 5.00 |  |
| COc1cc(-c2nc(Nc3ncccc3C(F)(F)F)n(C)n2)ccc1-n1cnc(C)c1 [Compound 240] | 6.10 | < 5.00 |  |
| COc1cc(-c2nc(Nc3ccc(=O)n(C)c3)n(C)n2)ccc1-n1cnc(C)c1 [Compound 242] | < 5.00 | < 5.00 |  |
| CNc1nc(-c2ccc(-n3cnc(C)c3)c(OC)c2)nn1-c1cccc(C(F)(F)F)c1 [Compound 93] |  |  | pIC50 (Aβ42 [1]; Homo sapiens): 6.55; pIC50 (Aβtotal [4]; Homo sapiens): < 5.00 |
| COc1cc(-c2nc(C(C)C)n(-c3ccc(F)cc3)n2)ccc1-n1cnc(C)c1 [Compound 31] | 6.35 | < 5.00 |  |
| Cc1cn(-c2ccc(-c3nc(Nc4cc(C(F)(F)F)ccc4F)n(C)n3)cc2)cn1 [Compound 207] | 6.91 | < 5.00 |  |
| COc1cc(-c2nc3n(n2)CCCC3c2ccccc2C(F)(F)F)ccc1-n1cnc(C)c1 (stereo not shown) [Compound 336] | 6.89 | < 5.00 |  |
| COc1cc(-c2nc3n(n2)CCC[C@@H]3c2ccc(F)cc2C)ccc1-n1cnc(C)c1 [Compound 314] | 6.54 | < 5.00 |  |
| COc1cc(-c2nc(-c3cc(Cl)ccc3C)n[nH]2)ccc1-n1cnc(C)c1 [Compound 297] | 6.58 | < 5.00 |  |
| COc1cc(-c2nc3c(-c4cccc(OC(F)(F)F)c4)cccn3n2)ccc1-n1cnc(C)c1 [Compound 287] | 6.45 | < 5.00 |  |
| COc1cc(-c2nc(Cc3ccc(F)cc3C(F)(F)F)nn2C)ccc1-n1cnc(C)c1 [Compound 57] | 6.07 | < 5.00 |  |
| COc1ccc(Cl)c(Nc2nc(-c3ccc(-n4cnc(C)c4)c(OC)c3)nn2C)c1 [Compound 189] | 7.72 | < 5.00 |  |
| COc1cc(-c2nc(C(=O)Nc3cccc(C(F)(F)F)c3)n(C)n2)ccc1-n1cnc(C)c1 [Compound 329] | 5.51 | 6.07 |  |
| COc1cccc(-c2n[nH]c(-c3ccc(-n4cnc(C)c4)c(OC)c3)n2)c1 [Compound 55] | 6.63 | < 5.00 |  |
| COc1cc(-c2nc(Nc3ccccc3Cl)n(C)n2)ccc1-n1cnc(C)c1 [Compound 101] | 7.39 | < 5.00 |  |
| COc1cc(-c2nc(-c3cccc(C(F)(F)F)c3)nn2C)ccc1-n1cnc(C)c1 [Compound 8] | 5.37 | < 5.00 |  |
| COc1cc(-c2nc(Nc3c(F)cccc3C(F)(F)F)n(C)n2)ccc1-n1cnc(C)c1 [Compound 208] | 6.75 | < 5.00 |  |
| COc1cc(-c2nc3c(-c4ccccc4)nccn3n2)ccc1-n1cnc(C)c1 [Compound 292] | 5.63 | < 5.00 |  |
| COc1cc(-c2nc(Nc3ccccc3C(F)(F)F)n(C(C)C)n2)ccc1-n1cnc(C)c1 [Compound 176] | 7.34 | < 5.00 |  |
| COc1cc(-c2nc(Nc3c(F)ccc(Br)c3F)n(C)n2)ccc1-n1cnc(C)c1 [Compound 127] | 7.18 | < 5.00 |  |
| COc1cc(-c2nc3n(n2)CCOC3c2ccccc2OC(F)(F)F)ccc1-n1cnc(C)c1 (stereo not shown) [Compound 346] | 7.02 | < 5.00 |  |

| Structure (SMILES) | pIC50 (Aβ42 [1]) | pIC50 (Aβtotal [4]) | also measured |
| --- | --- | --- | --- |
| COc1cc(-c2nc3n(n2)CCOC3c2ccccc2C(F)(F)F)ccc1-n1cnc(C)c1 (stereo not shown) [Compound 316] | 6.18 | < 5.00 |  |
| COc1cc(-c2n[nH]c(C(CCCCCl)c3ccccc3C(F)(F)F)n2)ccc1-n1cnc(C)c1 (stereo not shown) [Compound 70] | 6.51 | < 5.00 |  |
| COc1cc(-c2nc(Nc3ccnc(C)c3)n(C)n2)ccc1-n1cnc(C)c1 [Compound 239] | 5.35 | < 5.00 |  |
| COc1cc(-c2nc(Nc3cc(NC(C)=O)ccc3F)n(C)n2)ccc1-n1cnc(C)c1 [Compound 221] | 6.15 | < 5.00 |  |
| COc1cc(-c2nc(Nc3cc(F)ccc3C)n(C)n2)ccc1-n1cnc(C)c1 [Compound 173] | 7.22 | < 5.00 |  |
| COc1cccc(-c2nc(-c3ccc(-n4cnc(C)c4)c(OC)c3)n(C)n2)c1 [Compound 56] | < 5.00 | < 5.00 |  |
| COc1cc(-c2nc3n(n2)CCCc2ccccc2-3)ccc1-n1cnc(C)c1 [Compound 17] |  |  | pIC50 (Aβ42 [1]; Homo sapiens): 6.39; pIC50 (Aβtotal [4]; Homo sapiens): < 5.00 |
| COc1cc(-c2nc(-c3ccc(-n4cnc(C)c4)c(OC)c3)nn2C)ccc1Cl [Compound 43] | 6.83 | < 5.00 |  |
| COc1cc(-c2nc(N[C@@H](C)c3ccc(F)cc3)n(C)n2)ccc1-n1cnc(C)c1 [Compound 51] | 6.49 | < 5.00 |  |
| COc1cc(-c2nc(-c3cc(Cl)ccc3C)n(C)n2)ccc1-n1cnc(C)c1 [Compound 88] | 6.68 | < 5.00 |  |
| COc1cc(F)ccc1Nc1nc(-c2ccc(-n3cnc(C)c3)c(OC)c2)nn1C [Compound 215] | 6.57 | < 5.00 |  |
| COc1cc(-c2nc(Nc3cc(F)c(F)c(F)c3)nn2C)ccc1-n1cnc(C)c1 [Compound 61] | 5.32 | < 5.00 |  |
| COc1cc(-c2nc3n(n2)CCCC3c2ccccc2OC(F)(F)F)ccc1-n1cnc(C)c1 (stereo not shown) [Compound 266] | 7.13 | < 5.52 |  |
| COc1cc(Cl)ccc1Nc1nc(-c2ccc(-n3cnc(C)c3)c(OC)c2)nn1C [Compound 188] | 6.75 | < 5.00 |  |
| COc1cc(-c2nc(-c3ccccc3Cl)n(CC(F)(F)F)n2)ccc1-n1cnc(C)c1 [Compound 86] | 6.71 | < 5.00 |  |
| COc1ccc(Nc2nc(-c3ccc(-n4cnc(C)c4)c(OC)c3)nn2C)c(F)c1 [Compound 197] | 6.87 | < 5.00 |  |
| CCn1nc(-c2ccc(-n3cnc(C)c3)c(OC)c2)nc1Nc1ccccc1C(F)(F)F [Compound 147] | 7.39 | < 5.00 |  |
| COc1cc(-c2nc3n(n2)CCOC3c2ccc(F)cc2C)ccc1-n1cnc(C)c1 (stereo not shown) [Compound 166] | 7.19 | < 5.00 |  |
| COc1cc(-c2nc(Nc3cc(F)c(F)cc3Cl)n(C)n2)ccc1-n1cnc(C)c1 [Compound 121] | 6.91 | < 5.00 |  |
| COc1cc(-c2nc(Nc3cccc4c3OC(F)(F)O4)n(C)n2)ccc1-n1cnc(C)c1 [Compound 317] | 7.47 | 5.10 |  |
| COc1nc(-c2nc3n(n2)CCOC3c2ccccc2OC(F)(F)F)ccc1-n1cnc(C)c1 (stereo not shown) [Compound 348] | 7.10 | < 5.00 |  |
| COc1cc(-c2nc(N3CCCC3)n(C(C)c3ccc(F)cc3)n2)ccc1-n1cnc(C)c1 (racemic) [Compound 76] | 6.07 | 4.90 |  |

— patent US8946266B2, “Substituted triazole and imidazole derivatives as gamma secretase modulators” (Janssen Pharmaceuticals, Inc., priority 2009, dated 2015)
